Starred links: 1 amine or outer side, 2 acyl side, 3 side chain; linkers in the order of their positions; H or OH if unused. Positions of bridges follow the written chain, without caps; N, C: chain ends. Non-standard residues stand in square brackets, D forms with d. Residues, ends and D or L forms follow the SMILES beside them. Chains are numbered I, II in the order given. Actinocin(9to1) = Cc1c2oc3c(C)ccc(C(=O)[*:1])c3nc-2c(C(=O)[*:2])c(N)c1=O; NMeV = CN[C@H](C(=O)O)C(C)C; Sar = CNCC(=O)O
Legend:
[1] = tested on: p53−/− fibroblasts; assay: Apoptosis of p53-/- fibroblasts after ER stress activators; type: cell-based, mouse
Method: (§1) The list of conditions known to trigger the ER stress response includes treatment of cells with thapsigargin, which interferes with calcium flux across the ER membrane, or tunicamycin, an inhibitor of N-linked glycosylation, or reducing agents, or deprivation of nutrients such as glucose, amino acids, or hypoxia. […] NIH3T3, p53−/−, Scotin antisense and control antisense expressing fibroblasts were treated with different doses of thapsigargin or tunicamycin or FCCP, a protonophore inducing mitochondrial stress. Cell survival was estimated by giemsa staining (FIG. 12.3).

[2] = tested on: NIH3T3-derived Scotin antisense and control antisense fibroblasts; assay: Cell survival by Giemsa staining, Scotin antisense versus control antisense fibroblasts; type: cell-based, mouse; conditions: different doses
Method: Cell survival was determinated as described in the Experimental Procedures by trypan blue 24 h after irradiation. Histogram represents the compilation of 4 independent experiments. Standard Deviation is reported as error bars. b) Clonoge assay; Scotin antisense and control antisense expressing fibroblasts were treated at concentrations indicated with the DNA-damaging agent Doxorubicin (Dx) or with the activators of ER stress Thapsigargin (Tg) or Tunicamycin (Tu) or with an activator of mitochondrial stress, FCCP. After treatment, cells were fixed in methanol and stained by Giemsa.
Cells were treated with different doses of doxorubicin for 24 h and were allowed to recover for 24 h after treatment. Cell survival was estimated by giemsa staining.
as §1

[3] = tested on: Scotin; assay: Western blot of Scotin protein induction in mouse embryonic fibroblasts; type: cell-based; conditions: 60 ng/ml
Method: (§2) FIG. 7 is a western blot which illustrates that p53 is necessary and sufficient to induce Scotin protein expression. a) Only primary mouse embryonic fibroblasts (MEF) expressing WTp53 induce Scotin after UV irradiation or Actinomycin D treatment. MEF from p53−/− and p53+/+ littermate mice were exposed to UV-C light (20 J/m2) or Actinomycin D (60 ng/ml). Proteins were extracted at time indicated after treatment and analysed by Western blot by using affinity purified rabbit polyclonal anti-mouse-Scotin antibody. As a positive control, p53 and Waf induction were determined by using CM5 rabbit polyclonal anti-mouse p53 antibody and F5 mouse monoclonal anti-Waf antibody. […] Scotin expression was analysed by Western blot by using affinity purified rabbit polyclonal anti-human Scotin antibody. […]
(§3) Cells were washed and scraped in PBS buffer and centrifuged at 2000 rpm for 2 min. […] Protein concentration of the supernatant was determined by the Bradford assay. […]
(§4) In order to further characterise Scotin protein, it was essential to identify cell lines that could induce Scotin upon DNA damage. […] Proteins were extracted after treatment and levels analysed by Western blot Waf and p53 protein levels were used as an indication of p53 activation.

[4] = tested on: Scotin; assay: Western blot of Scotin protein induction in human fibroblasts and tumour cell lines; type: cell-based
Method: as §2, §3, §4

[5] = tested on: NIH3T3 fibroblasts; assay: TUNEL staining of drug-treated NIH3T3 fibroblasts; type: cell-based, mouse; conditions: NIH3T3, 24 h; tunicamycin 1 μg/ml, thapsigargin 150 nM
Method: NIH3T3 fibroblasts were treated for 24 h with 1 μg/ml of tunicamycin, fixed by paraformaldehyde and stained by TUNEL. Cells in apoptosis are stained by TUNEL (eft hand images).
For TUNEL assay, cells (3×10^5) seeded on 2-well glass chamber slide, were transfected as described. Cells were fixed for 30 min at RT in 4% paraformaldehyde in PBS, washed in PBS and permeabilised 2 min at 4° C. in 0.1% Triton X-100, 0.1% sodium citrate. The TUNEL staining was performed accordingly to the manufacturer's protocol (In Situ Cell Death Detection kit, Roche Molecular Biochemicals). The apoptotic cells presenting fragmented DNA were then labelled in green after incorporation of fluorescein.

Row | Molecule | apoptosis induced by the drug in p53−/− fibroblasts [1] | resistance of Scotin antisense cells compared with control antisense cells to cell death induced by the drug [2] | also measured
1 | C/C=C(/C)C(=O)O[C@H]1C(C)=C2[C@H]([C@@H]1OC(=O)CCCCCCC)[C@@](C)(OC(C)=O)C[C@H](OC(=O)CCC)[C@@]1(O)[C@H]2OC(=O)[C@@]1(C)O [thapsigargin] | resistant | more resistant | 
2 | N#CC(C#N)=NNc1ccc(OC(F)(F)F)cc1 [FCCP] |  | not | 
3 | Cc1c2oc3c(C)ccc(C(=O)N[C@@H]4C(=O)N[C@H](C(C)C)C(=O)N5CCC[C@H]5C(=O)N(C)CC(=O)N(C)[C@@H](C(C)C)C(=O)O[C@@H]4C)c3nc-2c(C(=O)N[C@@H]2C(=O)N[C@H](C(C)C)C(=O)N3CCC[C@H]3C(=O)N(C)CC(=O)N(C)[C@@H](C(C)C)C(=O)O[C@@H]2C)c(N)c1=O [Actinomycin D] (I: T[dV]P[Sar][NMeV] / II: T[dV]P[Sar][NMeV]; ester I:1-I:C, II:1-II:C; linker I:N-II:N via Actinocin(9to1)) |  |  | Scotin protein level ([3]; p53+/+ MEF): clearly accumulated; Scotin protein level ([3]; p53−/− MEF): not; Scotin protein level ([4]; human primary fibroblast and tumour cells expressing wt p53, 60 ng/ml): clearly accumulated; Scotin protein level ([4]; human tumour cell lines devoid of p53 expression, 60 ng/ml): not
4 | tunicamycin | resistant | more resistant | cell death by TUNEL [5]: die by apoptosis
5 | COc1cccc2c1C(=O)c1c(O)c3c(c(O)c1C2=O)C[C@@](O)(C(=O)CO)C[C@@H]3O[C@H]1C[C@H](N)[C@H](O)[C@H](C)O1 [doxorubicin] |  | more resistant | 

Source: patent publication US20040146971A1, “Novel p53 inducible protein” (priority 2001, published 2004)
